Consider five compounds from article PMC4861267 (PLoS ONE, 2016).

The structures appear in SMILES notation. Like-named read-outs stand apart in the source and are kept apart here.

For data set [1], the target named is T1, histamine H2 receptor (Rattus norvegicus, UniProt P25102).
T1 construct: endogenous in cells
In words: Competition binding assay (displacement of ^3H-tiotidine). From the text: (§1) All test animals were used in accordance with the National Institutes of Health Guidelines for the Care and Use of Laboratory Animals and Permission for Use of Laboratory Animals 34401-1/2010/8 and U34401-12/2013/3 issued by the Administration of the Republic of Slovenia for Food Safety, Veterinary and Plant Protection to prepare primary astrocytes cultures from newborn not-treated rat. 3 day old rats were sacrificed by decapitation, followed by removing the brain cortices. Primary cultures of astrocytes were prepared and cultured as previously described. Cells were grown in high-glucose Dulbecco's modified Eagle's medium (DMEM), containing 10% fetal bovine serum (FBS), 1 mM pyruvate, 2 mM glutamine, and 25 μg/ml gentamycin in 95% air-5% CO2. Confluent cultures were shaken at 225 rpm overnight and the medium was changed the next morning; this was repeated a total of three times. After the third overnight shaking, the cells were trypsinized and cultured for 24 h in 10 μM cytosine arabinoside. After reaching confluence again the cells were subcultured into 12-well clusters and grown until becoming confluent again. The confluent cells were detached, washed twice in PBS, and cell sediment was stored at –70°C until used for the binding assay.
In the competition binding experiments, astrocyte cells were incubated together in the presence of different histaminergic ligands in the concentration range from 0.01 nM– 100 μM under the same incubation conditions as above. The concentration of ^3H-tiotidine used was 5 nM. The binding reaction was rapidly terminated and the bound ligand was separated from the unbound by vacuum filtration. The radioactivity trapped on the GF/C glass fiber filters was counted in a liquid scintillation counter (Microbeta, Perkin Elmer, USA).
(§2) The binding experiments were routinely carried out in triplicate and each experiment was repeated at least twice. The results are expressed as means ± SEM. The binding parameters (KD, Bmax, and IC50) were calculated by a non-linear regression method using software Prism6 version 6.00, GraphPad Software Inc. (San Diego, USA). A comparison of the data among the groups was carried out using Student`s unpaired t-test with Welch correction, where two groups of data were compared. Differences were considered significant at p < 0.05.

For data set [2], the target named is T1, histamine H2 receptor. The experiment in a line: ^3H-tiotidine saturation binding assay. The note with it: cultured neonatal rat astrocytes; for Kd: read-out: equilibrium dissociation constant (KD).
Excerpt: as §1
0.1 mg of astrocyte cell protein was incubated for 15 minutes at 25°C in 0.15M Na^+/K^+ -phosphate buffer (pH 7.4) or in 0.15M Na^+/K^+ -phosphate buffer made using D2O instead of miliQ water (pH 7.4) in a total volume of 0.25 mL with the indicated concentrations of ^3H-tiotidine (1–15 nM), with a specific activity of 82.2 Ci/mmol. Specific binding represented the difference between total and non-specific binding (binding in the presence of 1 μM cimetidine).
as §2

The conditions of data set [3]: MP2/6–31++G(2d,2p) and Langevin dipole calculated value; cited from earlier work.
The mark [4] stands for this setting: regular phosphate buffer (control).

T1 sequence (P25102 whole entry): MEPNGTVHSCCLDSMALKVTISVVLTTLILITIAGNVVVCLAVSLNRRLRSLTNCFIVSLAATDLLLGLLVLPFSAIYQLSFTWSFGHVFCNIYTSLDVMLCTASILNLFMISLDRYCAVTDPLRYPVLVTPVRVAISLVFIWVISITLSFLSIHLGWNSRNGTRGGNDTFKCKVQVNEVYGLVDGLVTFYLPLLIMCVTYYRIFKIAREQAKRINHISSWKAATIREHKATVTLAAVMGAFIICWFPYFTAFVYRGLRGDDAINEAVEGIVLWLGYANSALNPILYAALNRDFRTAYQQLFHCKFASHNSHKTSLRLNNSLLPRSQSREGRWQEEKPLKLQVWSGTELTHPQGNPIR

With `Cc1ncc(CCN)[nH]1` [2-methylhistamine], the IC50 at histamine H2 receptor [1] is 4.17 nM.

One may read the Kd as a measure of binding affinity in units of concentration. Consider `CN=C(NC#N)NCCSCc1csc(N=C(N)N)n1` [^3H-tiotidine], for which the “maximal binding capacity (Bmax)” value on histamine H2 receptor [2] (deuterated medium (D2O)) is recorded as 17.1 ± 2.7 fmol/mg protein; on histamine H2 receptor [2] (setting [4]) it was 18.6 ± 1.7 fmol/mg protein. Moreover, the Kd was 7.4 ± 2.4 nM at histamine H2 receptor [2] (deuterated medium (D2O)) and 4.7 ± 1 nM on histamine H2 receptor [2] (setting [4]).

For the compound `NCCc1c[nH]cn1` [deuterated histamine], the IC50 at histamine H2 receptor [1] (deuterated (D), read-out: reported measured value (ligand binding constant)) came out at 16 nM.

Turning to `[2H]N([2H])CCc1cn([2H])cn1` [deuterated histamine], the binding free energy entry at histamine H2 receptor [1] (deuterated (D), from measured value 16 nM) was “–10.59 kcal/mol”.

On to `NCCc1c[nH]cn1` [histamine], for which the binding free energy result at histamine H2 receptor [1] (control (H), from measured value 56 nM) is reported as “–9.86 kcal/mol”. Besides, the IC50 on histamine H2 receptor [1] (control (H), read-out: reported measured value (ligand binding constant)) came to 56 nM. The “ΔEINTER(exp) ΔΔE(H2O–D2O); experimental difference in binding free energy upon deuteration” value on histamine H2 receptor [1] (ΔGBIND(H→D) = −RT ln(KD/KH)) is 0.73 kcal mol^–1. For the same compound, the hydration free energy result in data set [3] is “–68.6 kcal mol^–1”.
